Data published in US8673914B2, “Use of phosphodiesterase inhibitors for treating multidrug resistance” (St. John's University, priority 2011, dated 2014).
Marks after values point to notes of the source that are not given here.

Columns and labels:
HEK/ABCB1 (ABCB1) = test: MTT cytotoxicity/reversal assay (Example 1); conditions: HEK/ABCB1; alone
Protocol: The KB-C2 and KB-3-1 were kindly provided by Dr. Akiyama (Kagoshima University, Japan). […] Similarly, the HEK/MRP1 (ABCC1) and HEK/ABCB1 cells were generated by transfecting the HEK293 cells with either the MRP1 expression vector or the ABCB1 expression vector. All of the cell lines were grown in Dulbecco's modified Eagle's medium (DMEM) supplemented with 10% bovine serum, 100 units/ml penicillin, and […] streptomycin in a humidified incubator containing 5% CO2 at 37° C.
(§1) The MTT assay was used to assess cytotoxicity. The cultured cells were harvested with trypsin and resuspended in a final concentration of 4×10^3 cells/well for KB-3-1; 7.5×10^3 cells/well for KB-C2; and 8×10^3 for all of the other cell lines used in this study. Cells were seeded evenly in 96-well multiplates. […] After 68 h of incubation, 20 μl of the MTT solution (4 mg/ml) was added to each well, and the plate was further incubated for 4 h at 37° C., allowing viable cells to convert the yellow-colored MTT into dark-blue formazan crystals. Subsequently, the medium was discarded, and 100 μl of DMSO was added into each well to dissolve the formazan crystals, generating purple color. The absorbance was determined at 570 nm by an OPSYS Microplate Reader from DYNEX Technologies, Inc. (Chantilly, Va.). […] The degree of the reversal of multidrug resistance (MDR) was calculated by dividing the IC50 of an anticancer drug, e.g., an antineoplastic or chemotherapeutic drug (agent, compound), in a cell type in the absence of a reversal agent by the IC50 of the anticancer drug in the same cell type in the presence of the reversal agent. The IC50 values were calculated from survival curves using the Bliss method.

HEK/MRP7 cells [1] = test: [^3H]-paclitaxel efflux (Example 4); format: cell-based; conditions: absence of PDE5 inhibitors
Protocol: (§2) The effect of PDE5 inhibitors on the intracellular accumulation of paclitaxel in HEK293-pcDNA3.1 and HEK/MRP7 cells was measured using [^3H]-paclitaxel. […] For efflux studies, the cells were treated the same as in the drug accumulation study, and then washed three times with ice-cold PBS, and suspended in fresh medium with or without PDE5 inhibitors. Aliquots were evenly collected at various time points (0, 30, 60, and 120 min). Samples from both accumulation and efflux experiments were washed with ice-cold PBS three times and placed in scintillation fluid, and the radioactivity was measured in a Packard TRI-CARB® 1900CA liquid scintillation analyzer from Packard Instrument Company, Inc. (Downers Grove, Ill.).

HEK/MRP7 cells [2] = test: [^3H]-paclitaxel accumulation (Example 4); format: cell-based; conditions: no inhibitor
Protocol: as §2

KB-C2 (ABCB1) = test: MTT cytotoxicity/reversal assay (Example 1); format: cell-based, human; conditions: alone
Protocol: (§3) The KB-C2 and KB-3-1 were kindly provided by Dr. Akiyama (Kagoshima University, Japan). HEK293-pcDNA3.1 and wild-type HEK/ABCG2 transfected cells were established by selection with G418 after transfecting HEK293 with either (1) empty pcDNA3.1 vector or (2) pcDNA3.1 vector containing full length of ABCG2 coding arginine (R) at amino acid position 482, and were then cultured in a medium with 2 mg/ml of G418 (ABCG2-482-R2 cells). Similarly, the HEK/MRP1 (ABCC1) and HEK/ABCB1 cells were generated by transfecting the HEK293 cells with either the MRP1 expression vector or the ABCB1 expression vector. All of the cell lines were grown in Dulbecco's modified Eagle's medium (DMEM) supplemented with 10% bovine serum, 100 units/ml penicillin, and […] streptomycin in a humidified incubator containing 5% CO2 at 37° C.
as §1

KB-3-1 = test: MTT cytotoxicity/reversal assay (Example 1); format: cell-based, human; conditions: alone
Protocol: as §3, §1

HEK 293-pcDNA-3.1 = test: MTT cytotoxicity assay (Example 4); format: cell-based
Protocol: (§4) The MRP7 cDNA was generously provided by Dr. Gary Kruh (University of Illinois, Chicago, Ill.) and inserted into the pcDNA3.1 expression vector. […] Individual colonies were selected in medium containing G418 (1 mg/ml) and cultured for further analysis.
(§5) MTT colorimetric assay was performed to analyze the drug sensitivity as previously described (Shi et al. (2007) Cancer Res. 67:11012-20). HEK293-pcDNA3.1 and HEK/MRP7 cells were seeded into 96-well plates in triplicate at 6000 cells/well.
(§6) After drug incubation of 68 h, 20 μl MTT solution (4 mg/ml) was added into each well. […] The Bliss method was used to calculate the IC50 values according to survival curves.

HEK/MRP7 = test: MTT cytotoxicity assay (Example 4); format: cell-based; conditions: alone;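 also: drug IC50 in HEK/MRP7 divided by IC50 in parental HEK293-pcDNA3.1 cells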
Protocol: as §4, §5, §6

HEK293/pcDNA3.1 = test: MTT cytotoxicity/reversal assay (Example 1); format: cell-based; conditions: HEK293/pcDNA3.1; alone
Protocol: as §3, §1

KB-C2 cells (ABCB1) = test: [^3H]-paclitaxel accumulation (Example 1); format: cell-based, human; conditions: no reversal agent
Protocol: The intracellular accumulation of [^3H]-paclitaxel was measured as follows. […] Intracellular paclitaxel accumulation was measured by incubating cells with 0.1 μM [^3H]-paclitaxel for 2 h in the presence or absence of the reversal agents at 37° C. The cells were washed three times with ice-cold PBS, then suspended in fresh medium with or without reversal agents at 37° C. Aliquots of the extracellular medium (40 μl) were collected at various time points (0, 60, 120 min), and finally the cells were collected and lysed in 10 mM lysis buffer (pH 7.4, containing 1% Triton X-100 and 0.2% SDS). Each sample was placed in scintillation fluid and the radioactivity was measured in a Packard TRI-CARB1 1900CA liquid scintillation analyzer from Packard Instrument Company, Inc. (Downers Grove, Ill.).

SMILES: CC(=O)O[C@H]1C(=O)[C@@]2(C)[C@H]([C@H](OC(=O)c3ccccc3)[C@]3(O)C[C@H](OC(=O)[C@H](O)[C@@H](NC(=O)c4ccccc4)c4ccccc4)C(C)=C1C3(C)C)[C@]1(OC(C)=O)CO[C@@H]1C[C@@H]2O [Paclitaxel, paclitaxel]
- fold reversal, paclitaxel (HEK/ABCB1 (ABCB1)): (1.00)
- accumulated [^3H]-paclitaxel remaining in cells (HEK/MRP7 cells [1]; 30 min): 62.43%
- accumulated [^3H]-paclitaxel remaining in cells (HEK/MRP7 cells [1]; 60 min): 39.47%
- accumulated [^3H]-paclitaxel remaining in cells (HEK/MRP7 cells [1]; 120 min): 23.44%
- intracellular concentration of [^3H]-paclitaxel relative to parental HEK293-pcDNA3.1 (HEK/MRP7 cells [2]): 28.5%
- fold reversal, paclitaxel (KB-C2 (ABCB1)): (1.00)
- fold reversal, paclitaxel (KB-3-1): (1.00)
- fold-resistance, paclitaxel (HEK 293-pcDNA-3.1; HEK 293-pcDNA-3.1, alone): (1.0)^b
- IC50 (HEK 293-pcDNA-3.1; read-out: IC50 of paclitaxel): 11.6 ± 1.33 nM
- fold-resistance, paclitaxel (HEK/MRP7): (9.21)
- fold reversal, paclitaxel (HEK293/pcDNA3.1): (1.00)
- intracellular concentration of paclitaxel relative to parental KB-3-1 cells (KB-C2 cells (ABCB1)): approximately 55%
